Experimental data as given in patent US11098077B2, “Locked nucleic acid cyclic dinucleotide compounds and uses thereof” (CHINOOK THERAPEUTICS, INC., priority 2016, dated 2021).

How the values were obtained:
hSTING WT = target: T1, hSTING WT (Homo sapiens, UniProt Q86WV6, H232R); assay: Differential scanning fluorometry (DSF) binding to purified STING AA140-379, wild type; conditions: for hSTING Tm Shift WT: DSF, ligand 1 mM, 1 mg/ml STING AA140-379
T1 construct: DNA encoding amino acids 140-379 (amino acid numbering corresponding to Swiss Prot Q86WV6); 6xHIS (N, cleaved yes); SUMO (N, cleaved yes); made in house; host or cells: Rosetta2 (DE3) E. coli
T1 sequence (Q86WV6 140-379 H232R limits assumed): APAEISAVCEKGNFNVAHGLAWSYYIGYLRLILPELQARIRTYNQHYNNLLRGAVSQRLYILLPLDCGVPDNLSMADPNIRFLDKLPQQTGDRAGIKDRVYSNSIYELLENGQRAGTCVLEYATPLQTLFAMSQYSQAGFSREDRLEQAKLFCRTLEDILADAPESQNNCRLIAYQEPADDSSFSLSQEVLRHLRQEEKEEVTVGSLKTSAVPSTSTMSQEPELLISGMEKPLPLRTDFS
Method: (§1) Cells were grown in lysogeny broth at 37° C. until a […] absorbance of 0.6 was reached. […] Cell pellets were re-suspended on ice in a buffer containing 50 mM Tris hydrochloride (Tris-HCl) pH 7.5, 500 mM sodium chloride (NaCl), 20 mM imidazole, 10% glycerol, 1 mM tris(2-carboxyethyl)phosphine hydrochloride (TCEP) and protease inhibitor tablet (Pierce) (Buffer A). Cells were lysed using an S-450D sonifier (Emmerson industrial) on ice. […] Protein was aliquoted, flash frozen in liquid nitrogen and stored at −80° C. until use.
(§2) The protein is heated in the presence of a dye that binds to and fluoresces in hydrophobic environments. The protein is thermally denatured by heating resulting in increased dye binding to the unfolded protein and fluorescence. The temperature midpoint (Tm) of a proteins denaturation is established by calculating the half maximal value of the denaturation curve. The temperature midpoint of the protein in the presence of a ligand is directly related to the affinity of the ligand for the protein and therefore its ability to stabilize the protein at higher temperatures.
(§3) Each of wild type hSTING, HAQ allele hSTING and REF allele hSTING were used with each of the reference compounds and compounds of the invention as listed in Table 4. Samples were placed in hard shell PCR plate (Bio-Rad). The fluorescence as a function of temperature was recorded in a CFX 96 real time PCR machine (Bio-Rad) reading on the HEX channel, excitation 450-490, emission 560-580 nm. The temperature gradient was from 15-80° C. ramping 0.5° C. per 15 seconds and recording every 0.5° C. After subtraction of the background signal from a sample lacking protein and ligand. The midpoint temperature (Tm) was calculated by fitting the curves of the fluorescence as a function of temperature to a Boltzmann sigmoidal function (Graph Pad Prism).

hSTING HAQ allele = target: T2, hSTING HAQ allele (Homo sapiens, UniProt Q86WV6, G230A/H232R/R293Q); assay: Differential scanning fluorometry (DSF) binding to purified STING AA140-379, HAQ allele; conditions: ligand 1 mM, 1 mg/ml STING AA140-379
T2 construct: DNA encoding amino acids 140-379 (amino acid numbering corresponding to Swiss Prot Q86WV6); 6xHIS (N, cleaved yes); SUMO (N, cleaved yes); made in house; host or cells: Rosetta2 (DE3) E. coli
T2 sequence (Q86WV6 140-379 G230A/H232R/R293Q limits assumed): as the sequence (Q86WV6 140-379 H232R limits assumed) above, with G91A, R154Q counted along it
Method: as §1, §2, §3

[1] = target: T3, hSTING HAQ allele in THP1-Dual cells (Homo sapiens, UniProt Q86WV6, G230A/H232R/R293Q/R71H); assay: THP1-Dual IRF-3 inducible secreted luciferase reporter assay (type I interferon activation), without digitonin; format: cell-based
T3 construct: a human monocyte cell line containing the hSTING HAQ allele; host or cells: THP1-Dual cells
T3 sequence (Q86WV6 whole entry R71H/G230A/H232R/R293Q): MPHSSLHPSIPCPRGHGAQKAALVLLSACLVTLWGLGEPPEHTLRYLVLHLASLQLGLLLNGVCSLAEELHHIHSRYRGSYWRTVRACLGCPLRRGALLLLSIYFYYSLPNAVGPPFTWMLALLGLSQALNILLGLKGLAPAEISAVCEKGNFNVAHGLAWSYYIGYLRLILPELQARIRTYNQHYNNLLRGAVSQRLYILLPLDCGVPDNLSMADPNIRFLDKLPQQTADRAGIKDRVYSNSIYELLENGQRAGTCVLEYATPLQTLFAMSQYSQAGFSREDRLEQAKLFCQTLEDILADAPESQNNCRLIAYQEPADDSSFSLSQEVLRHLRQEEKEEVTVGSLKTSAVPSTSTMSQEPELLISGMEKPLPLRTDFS
Method: After 30 minutes, cells were washed and fresh RPMI media containing 10% FBS was added, and cells were incubated at 37° C. with 5% CO2 Cell culture supernatants from each sample were collected after overnight incubation, and 10 μL of the cell culture supernatants was added to 50 μL QUANTI-Luc reagent (Invivogen). Type I interferon activation was determined by measuring secreted luciferase levels on a SpectraMax M3 spectrophotometer (Molecular Devices).

hSTING REF allele = target: T4, hSTING REF allele (Homo sapiens, UniProt Q86WV6); assay: Differential scanning fluorometry (DSF) binding to purified STING AA140-379, REF allele; conditions: for hSTING Tm Shift REF: DSF, ligand 1 mM, 1 mg/ml STING AA140-379; for Tm shift compared with 2′3′-RR-(A)(A) and 2′3′-(G)(A): for the REF allele
T4 construct: DNA encoding amino acids 140-379 (amino acid numbering corresponding to Swiss Prot Q86WV6); 6xHIS (N, cleaved yes); SUMO (N, cleaved yes); made in house; host or cells: Rosetta2 (DE3) E. coli
T4 sequence (Q86WV6 140-379): as the sequence (Q86WV6 140-379 H232R limits assumed) above, with R93H counted along it
Method: as §1, §2, §3

[2] = for all three alleles (WT, HAQ, REF)

SMILES | hSTING Tm Shift WT (hSTING WT) | Tm shift compared with natural ligand 2′3′-(G)(A) (hSTING WT; [2]) | Tm shift compared with reference compound 2′3′-RR-(A)(A) (hSTING WT; [2]) | hSTING Tm Shift HAQ (hSTING HAQ allele) | EC50 [1] | hSTING Tm Shift REF (hSTING REF allele) | Tm shift compared with 2′3′-RR-(A)(A) and 2′3′-(G)(A) (hSTING REF allele)
Nc1nc2c(ncn2[C@@H]2O[C@@]34CO[C@@H]2[C@@H]3O[P@](=O)(S)OC[C@H]2O[C@@H](n3cnc5c(N)ncnc53)[C@H](O)[C@@H]2O[P@](=O)(S)OC4)c(=O)[nH]1 [Compound 33a, 3′3′-RR-(A)(2′O,4′C-LNA-G)] | 18.36 °C | greater Tm shift than the natural ligand 2′3′-(G)(A) | comparable to or greater than that of the reference compound 2′3′-RR-(A)(A) | 29.6 °C | 30.2 µM | 11.9 °C | greater Tm shift than both 2′3′-RR-(A)(A) and 2′3′-(G)(A)
Nc1ncnc2c1ncn2[C@@H]1O[C@@]23CO[C@@H]1[C@@H]2O[P@](=O)(S)OC[C@@H]1C[C@@H](O[P@](=O)(S)OC3)[C@H](n2cnc3c(N)ncnc32)O1 [Compound 21a, dithio-(Rp,Rp)-cyclic-[3′H-A(2′,5′)p-2′O,4′C-LNA-A(3′,5′)p]] | 9.5 °C |  |  | 16.2 °C | 26.9 µM | 6.2 °C | 
Nc1ncnc2c1ncn2[C@@H]1O[C@@H]2CO[P@@](=O)(S)O[C@H]3[C@H]4OC[C@]3(CO[P@@](=O)(S)O[C@@H]1[C@@H]2F)O[C@H]4n1cnc2c(N)ncnc21 [Compound 27a, dithio-(Rp,Rp)-cyclic-[3′F-A(2′,5′)p-2′O,4′C-LNA-A(3′,5′)p]] | 11.8 °C |  | comparable to or greater than that of the reference compound 2′3′-RR-(A)(A) | 18.2 °C | 10 µM | 10.2 °C | greater Tm shift than both 2′3′-RR-(A)(A) and 2′3′-(G)(A)
Nc1ncnc2c1ncn2[C@@H]1O[C@@H]2CO[P@@](=O)(S)O[C@H]3[C@H]4OC[C@]3(CO[P@@](=O)(S)O[C@@H]1[C@@H]2O)O[C@H]4n1cnc2c(N)ncnc21 [Compound 10a, dithio-(Rp,Rp)-cyclic-[A(2′,5′)p-2′O,4′C-LNA-A(3′,5′)p]] | 10.4 °C |  |  | 16.1 °C | 24.3 µM | 7.5 °C | 
Nc1ncnc2c1ncn2[C@@H]1O[C@@H]2CO[P@](=O)(S)O[C@H]3[C@H]4OC[C@]3(CO[P@@](=O)(S)O[C@@H]1[C@H]2F)O[C@H]4n1cnc2c(N)ncnc21 [Compound 37b, dithio-(RP,SP)-cyclic-[3′βF-A(2′,5′)p-2′O,4′C-LNA-A(3′,5′)p]] | 1.8 °C |  |  | 6.8 °C | > 150 µM | 0.5 °C | 
Nc1ncnc2c1ncn2[C@@H]1O[C@@H]2CO[P@](=O)(S)O[C@H]3[C@H]4OC[C@]3(CO[P@@](=O)(S)O[C@@H]1[C@@H]2F)O[C@H]4n1cnc2c(N)ncnc21 [Compound 27b, dithio-(Rp,Sp)-cyclic-[3′F-A(2′,5′)p-2′O,4′C-LNA-A(3′,5′)p]] | 8.2 °C |  |  | 13.2 °C | 81 µM | 7.1 °C | 
O=C(Nc1ncnc2c1ncn2[C@@H]1O[C@@]23CO[C@@H]1[C@@H]2O[P@](=O)(S)OC[C@@H]1C[C@@H](O[P@](=O)(S)OC3)[C@H](n2cnc3c(NC(=O)c4ccccc4)ncnc32)O1)c1ccccc1 [Compound 22a, dithio-(Rp,Rp)-cyclic-[3′H-BzA(2′,5′)p-2′O,4′C-LNA-BzA(3′,5′)p]] | 0.6 °C |  |  | 2.2 °C |  | 0.6 °C | 
O=C(Nc1ncnc2c1ncn2[C@@H]1O[C@@]23CO[C@@H]1[C@@H]2O[P@@](=O)(S)OC[C@@H]1C[C@@H](O[P@](=O)(S)OC3)[C@H](n2cnc3c(NC(=O)c4ccccc4)ncnc32)O1)c1ccccc1 [Compound 22b, dithio-(Rp,Sp)-cyclic-[3′H-BzA(2′,5′)p-2′O,4′C-LNA-BzA(3′,5′)p]] | 4.6 °C |  |  | 5.9 °C |  | 4.6 °C | 
Nc1ncnc2c1ncn2[C@@H]1O[C@@H]2CO[P@@](=O)(S)O[C@H]3[C@H]4OC[C@]3(CO[P@@](=O)(S)O[C@@H]1[C@H]2F)O[C@H]4n1cnc2c(N)ncnc21 [Compound 37a, dithio-(RP,RP)-cyclic-[3′βF-A(2′,5′)p-2′O,4′C-LNA-A(3′,5′)p]] | 4.7 °C |  |  | 11.2 °C | 61.2 µM | 2.1 °C | 
O=C(Nc1ncnc2c1ncn2[C@@H]1O[C@@H]2CO[P@](=O)(S)O[C@H]3[C@H]4OC[C@]3(CO[P@@](=O)(S)O[C@@H]1[C@@H]2O)O[C@H]4n1cnc2c(NC(=O)c3ccccc3)ncnc21)c1ccccc1 [Compound 11e, dithio-(Rp,Sp)-cyclic-[3′-BzA(2′,5′)p-2′O,4′C-LNA-BzA(3′,5′)p]] | 1.1 °C |  |  | 1.5 °C |  | 1.2 °C | 
O=C(Nc1ncnc2c1ncn2[C@@H]1O[C@@H]2CO[P@@](=O)(S)O[C@H]3[C@H]4OC[C@]3(CO[P@@](=O)(S)O[C@@H]1[C@@H]2O)O[C@H]4n1cnc2c(NC(=O)c3ccccc3)ncnc21)c1ccccc1 [Compound 11d, dithio-(Rp,Rp)-cyclic-[3′-BzA(2′,5′)p-2′O,4′C-LNA-BzA(3′,5′)p]] | 2.5 °C |  |  | 3.7 °C |  | 2.4 °C | 
CC(C)(C)[Si](C)(C)O[C@H]1[C@H]2O[P@](=O)(S)OC[C@@]34CO[C@@H]([C@H](n5cnc6c(N)ncnc65)O3)[C@@H]4O[P@@](=O)(S)OC[C@H]1O[C@H]2n1cnc2c(N)ncnc21 [Compound 11b, dithio-(Rp,Sp)-cyclic-[3′-OTBS-A(2′,5′)p-2′O,4′C-LNA-A(3′,5′)p]] | −1.8 °C |  |  | 3.3 °C |  | −1.5 °C | 
CC(C)(C)[Si](C)(C)O[C@H]1[C@H]2O[P@](=O)(S)OC[C@@]34CO[C@@H]([C@H](n5cnc6c(N)ncnc65)O3)[C@@H]4O[P@](=O)(S)OC[C@H]1O[C@H]2n1cnc2c(N)ncnc21 [Compound 11a, dithio-(Rp,Rp)-cyclic-[3′-OTBS-A(2′,5′)p-2′O,4′C-LNA-A(3′,5′)p]] | 7.0 °C |  |  | 11.6 °C |  | 5.4 °C | 
O=C(Nc1ncnc2c1ncn2[C@@H]1O[C@@H]2CO[P@@](=O)(S)O[C@H]3[C@H]4OC[C@]3(CO[P@](=O)(S)O[C@@H]1[C@@H]2O)O[C@H]4n1cnc2c(NC(=O)c3ccccc3)ncnc21)c1ccccc1 [Compound 11f, dithio-(Sp,Rp)-cyclic-[3′-BzA(2′,5′)p-2′O,4′C-LNA-BzA(3′,5′)p]] | 6.6 °C |  |  | 7.5 °C |  | 6.5 °C | 
